Patent US12116344B2, “Crystalline forms of a pharmaceutical compound” (Azafaros B.V., priority 2020, dated 2024)
Values after ≈ are worked out from the molar mass of the structure shown. Like-named read-outs stand apart in the source and are kept apart here.

How the values were obtained:
Type in all cases: physicochemical
[1] = Stability of the crystalline form (transition of Form 2 into Form 3); conditions: Form 2 transitions into Form 3 above around 30° C. in about 1-5 min, or in solvent for more than 5 min at around 25° C.
Description: Alternatively, Form 2 transitioned into Form 3 upon equilibration in solvent (e.g. acetone) for more than 5 min at around 25° C.

[2] = Dynamic vapour sorption (DVS), hygroscopicity
Description: Dynamic vapour sorption (DVS) measurements were performed with an SPS11-100n “Sorptions Prüfsystem” from ProUmid (formerly “Projekt Messtechnik”), August-Nagel-Str. 23, 89079 Ulm (Germany). About 5 mg to 20 mg of sample was put into an aluminum sample pan. Humidity change rates of 5% per hour were used. The applied measurement program can be described as follows:
The sample was placed on an aluminium or platinum holder on top of a microbalance and allowed to equilibrate at a relative humidity (RH) of 50% before starting the pre-defined humidity programs: • (1) 2 h at 50% RH • (2) 50→0% RH (5%/h); 5 h at 0% RH • (3) 0→95% RH (5%/h); 5 h at 95% RH • (4) 95→0% RH (5%/h); 5 h at 0% RH • (5) 0→95% RH (5%/h); 5 h at 95% RH • (6) 95→50% RH (5%/h); 2 h at 50% RH

[3] = Approximate solubility by incremental solvent addition with shaking/sonication; conditions: for solubility: thermodynamic from solid, about 25° C., approximate, read-out: Solubility S
Description: Approximate solubilities were determined by incremental addition of solvent to about 10 mg the compound and subsequent shaking and/or sonication for a short period of time. If the substance was not dissolved by addition of a total of at least 10 ml solvent, the solubility is indicated as <1 mg/ml. The experiments were conducted at about 25° C.
Compound (I) was purified using a silica gel column to remove borate esters followed by a short equilibration in acetonitrile (about 1-5 min). Solubility of purified compound (I) in acetonitrile was determined to be between 5 mg/mL and 8 mg/mL. These values were determined by adding small aliquots of solvent to −10 mg of solid compound (I) and shaking/sonicating for a short period of time at room temperature (about 25° C.).

SMILES	Stability of the crystalline form [1]	Hygroscopicity (description) [2]	Solubility in water ([3]; Form 2 crystalline form, summary Table 3) [mg/mL]	solubility ([3]; organic solvent or mixture, 1-Propanol) [mg/mL]	solubility ([3]; organic solvent or mixture, 2-Propanol) [mg/mL]	solubility ([3]; organic solvent or mixture, Acetic acid) [mg/mL]	solubility ([3]; organic solvent or mixture, Acetone) [mg/mL]	solubility ([3]; organic solvent or mixture, Acetonitrile) [mg/mL]	solubility ([3]; organic solvent or mixture, DCM) [mg/mL]	solubility ([3]; organic solvent or mixture, Ethanol) [mg/mL]	solubility ([3]; organic solvent or mixture, Ethyl acetate) [mg/mL]	solubility ([3]; organic solvent or mixture, MEK) [mg/mL]	solubility ([3]; organic solvent or mixture, Methanol) [mg/mL]	solubility ([3]; organic solvent or mixture, THF) [mg/mL]	solubility ([3]; Water) [mg/mL]
OC[C@H]1[C@@H](O)[C@H](O)[C@@H](O)CN1CCCCCOCc1ccc(-c2ccccc2)c(F)c1 [Form 2]	low stability	hygroscopic	~80 (≈ 185 mM)	–	–	–	–	–	–	–	–	–	–	–	–
OC[C@H]1[C@@H](O)[C@H](O)[C@@H](O)CN1CCCCCOCc1ccc(-c2ccccc2)c(F)c1 [compound (I)]	–	–	–	13 to 15 (≈ 30 to 34.6 mM)	19 to 20 (≈ 43.8 to 46.1 mM)	> 120	55 to 73 (≈ 127 to 168 mM)	5 to 8 (≈ 11.5 to 18.5 mM)	> 160	40 to 53 (≈ 92.3 to 122 mM)	12 to 13 (≈ 27.7 to 30 mM)	40 to 50 (≈ 92.3 to 115 mM)	> 160	> 200	~80 (≈ 185 mM)
